In US6916832B2, “Chromeno[4,3,2-de]isoquinolines as potent dopamine receptor ligands” (University of North Carolina at Chapel Hill, priority 1999, dated 2005):
pEC50, pKi: −log10 of the molar value. Blank lines part the entries; values can stand above or below the molecule they belong to.

How the values were obtained:
D1 and D2 receptors = assay: D1:D2 selectivity from receptor binding
Method: (§1) Frozen rat striata was homogenized by seven manual strokes in a Wheaton Teflon-glass homogenizer in 8 ml ice cold 50 mM HEPES buffer with 4.0 mM MgCl2, (pH 7.4). The tissue was centrifuged at 27,000×g for 10 min, the supernatant was discarded, and the pellet was homogenized (5 strokes) and resuspended in ice cold buffer and centrifuged again. The final pellet was suspended at a concentration of approximately 2.0 mg wet weight/ml. The amount of tissue added to each assay tube was 1.0 mg, in a final assay volume of 1.0 ml. D1 receptors were labeled with [^3H] SCH23390 (0.30 nM). D2 receptors were labeled with [^3H] spiperone (0.07 nM); unlabeled ketanserin (50 nM) was added to mask binding to 5HT2 sites. Total binding was defined as radioligand bound in the absence of any competing drug. Nonspecific binding was estimated by adding unlabeled SCH23390 (1 μM) or unlabeled chlorpromazine ([…]) for D1 and D2 receptor binding assays, respectively. Triplicate determinations were made for each drug concentration in each assay. Assay tubes were incubated at 37° C. for 15 minutes. Binding was terminated by filtering with ice cold buffer on a Skatron 12 well cell harvester (Skatron, Inc., Sterling, Va.) using glass fiber filter mats (Skatron no. 7034). […] After shaking for 30 minutes, radioactivity was determined on a LKB Wallac 1219 RackBeta liquid scintillation counter (Wallac, Gaithersburg, Md.). […]

cloned human D4 receptor = target: T1, cloned human D4 receptor (Homo sapiens, UniProt P21917); assay: Radioreceptor binding, cloned human D4 receptor; settings: read-out: K0.5 at the cloned human D4 receptor
T1 construct: expressed in transfected cells; host or cells: not specified (e.g. C-6 glioma or CHO cells)
T1 sequence (P21917 1-419): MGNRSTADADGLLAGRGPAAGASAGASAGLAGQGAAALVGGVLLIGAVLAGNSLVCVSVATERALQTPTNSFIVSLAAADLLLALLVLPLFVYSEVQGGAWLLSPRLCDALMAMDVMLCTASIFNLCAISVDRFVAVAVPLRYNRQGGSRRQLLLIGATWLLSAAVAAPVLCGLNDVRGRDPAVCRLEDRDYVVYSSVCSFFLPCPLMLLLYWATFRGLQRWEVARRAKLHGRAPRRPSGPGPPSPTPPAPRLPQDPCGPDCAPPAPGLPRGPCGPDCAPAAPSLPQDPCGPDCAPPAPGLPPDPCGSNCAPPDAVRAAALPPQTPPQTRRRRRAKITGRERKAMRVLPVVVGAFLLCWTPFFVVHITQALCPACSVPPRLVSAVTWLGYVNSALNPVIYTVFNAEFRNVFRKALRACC
Method: Cells were grown in appropriate medium, and at confluency, harvested for membrane preparation. Flasks of cells in the same passage were scraped using a rubber policeman and collected in 50 ml centrifuge tubes. These were spun for 10 min at 1200×g, to pellet whole cells. The supernatant was discarded and then five ml of PBS (phosphate buffered saline)/flask was added to the centrifuge tubes to resuspend the cells. The tubes were then centrifuged again for min at 28,500×g. The PBS was removed and the pellet suspended in a solution of 10% DMSO in PBS. Cells were homogenized with a polytron for 10 seconds on setting 5. One ml aliquots were stored at −80° C. until use in receptor binding studies. Aliquots contained approximately 1 mg/ml of protein, as measured using the BCA protein assay reagent (Pierce, Rockford, Ill.). […]

D1 receptors [1] = target: T2, D1 receptors (Rattus norvegicus, UniProt P18901); assay: cAMP production in rat striatum homogenate; assay type: biochemical; settings: for agonist intrinsic activity at D1 receptors: rat striatum / rat striatal membranes, relative to dopamine
T2 construct: Frozen rat striata was homogenized by seven manual strokes; from tissue; host or cells: rat striatum
Method: Frozen striatal tissue (ca. 40 mg) was homogenized in 4 ml of buffer (5 mM Hepes, 2 mM EGTA, pH 7.5) using 10 strokes in a Wheaton Teflon-glass homogenizer. Four ml of 50 mM Hepes with 2 mM EGTA buffer (pH 7.5) was added, and the tissue was homogenized by an additional 3 strokes. A 20 μl aliquot of this tissue homogenate was added to a prepared reaction. The reaction mixture consisted of 100 mM Hepes (pH 7.4), 100 mM NaCl, 4 mM MgCl2, 2 mM EDTA, 500 μM isobutyl methylxanthine (IBMX), 0.01% ascorbic acid, 10 μM pargyline, 2 mM ATP, 5 μM GTP, 20 mM phosphocreatine, 5 units of creatine phosphokinase (CPK), and selected concentrations of DA. The final reaction volume was 100 μl. Basal cAMP activity was determined by incubation of tissue in the reaction mixture with no drug added. Tubes were assayed in duplicate. After a 15 min incubation at 30° C., the reaction was stopped with the addition of 500 μl of 0.1 N HCl. Tubes were vortexed briefly, and then spun in a BHG Hermle Z 230 M microcentrifuge for five min at 15,000×g to eliminate large particles. The concentration of cAMP in each sample was determined with an RIA of acetylated cAMP, modified from that previously described (Harper and Brooker, 1975). Iodination of cAMP was performed using a method described previously (Patel and Linden, 1988). Assay buffer was 50 mM sodium acetate buffer with 0.1% sodium azide (pH 4.75). Standard curves of cAMP were prepared in buffer at concentrations of 2 to 500 fmoles/assay tube. To improve assay sensitivity, all samples and standards were acetylated with 10 μl of a 2:1 solution of triethylamine:acetic anhydride. Samples were assayed in duplicate. Each assay tube contained 100 μl of diluted sample, 100 μl of primary antibody (sheep, anti-cAMP, 1:100,000 dilution with 1% BSA in buffer) and 100 μl of [^125I]-cAMP (50,000 dpm/100 μl of buffer); total assay volume was 300 μl. Tubes were vortexed and stored at 4° C. overnight (approx. 18 hr). Antibody-bound radioactivity was then separated by the addition of 25 μL of BioMag rabbit, anti-goat IgG (Advanced Magnetics, Cambridge Mass.), followed by vortexing and further incubation at 4° C. for 1 hr. To these samples 1 ml of 12% polyethylene glycol/50 mM sodium acetate buffer (pH 6.75) was added and all tubes were centrifuged at 1700×g for 10 min. Supernatants were aspirated and radioactivity in the resulting pellet was determined using an LKB Wallac gamma counter (Gaithersburg, Md.). Data were calculated for each sample, and expressed initially as pmol/mg/min cAMP. […] Normalized dose-response curves were analyzed by nonlinear regression using an algorithm for sigmoid curves in the curvefitting program InPlot (Graphpad, Inc.; San Francisco, Calif.). […]

[2] = tested on: MPTP-treated monkey model; settings: cited from earlier work
D2-like receptors = assay: Functional selectivity at D2-like receptors in rats (in vivo or in vitro); parameters: species or system rat
D1 receptors [3] = target: T3, D1 receptors (Macaca mulatta, UniProt O77680); assay: cAMP production in C-6-mD1 cells (cloned expressed primate D1A receptors); assay type: cell-based; settings: for agonist intrinsic activity at D1 receptors: C-6-mD1 cells / cloned expressed primate D1A receptors, relative to dopamine
T3 construct: expressed in transfected cells; host or cells: C-6 glioma cells (C-6-mD1)
Method: Radioreceptor and function studies were also conducted for cloned human or monkey receptors transfected into one of several cell lines [e.g., C-6 glioma or Chinese hamster ovary (CHO) cells]. Cells were grown in appropriate medium, and at confluency, harvested for membrane preparation. Flasks of cells in the same passage were scraped using a rubber policeman and collected in 50 ml centrifuge tubes. These were spun for 10 min at 1200×g, to pellet whole cells. The supernatant was discarded and then five ml of PBS (phosphate buffered saline)/flask was added to the centrifuge tubes to resuspend the cells. The tubes were then centrifuged again for […] at 28,500×g. The PBS was removed and the pellet suspended in a solution of 10% DMSO in PBS. Cells were homogenized with a polytron for 10 seconds on setting 5. One ml aliquots were stored at −80° C. until use in receptor binding studies. Aliquots contained approximately 1 mg/ml of protein, as measured using the BCA protein assay reagent (Pierce, Rockford, Ill.). Agonist intrinsic activity was assessed by the ability of selected compounds to stimulate adenylate cyclase, as measured by cAMP formation in whole cells. In C-6 cells, for example, the dose response curve for each drug was fit using a sigmoid function to determine maximal effective concentration (top plateau of curve) as well as EC50s. All drugs were run in the same assay in order to decrease variability across cell passages. Confluent plates of cells were incubated with drugs dissolved in DMEM-H plain media supplemented with 20 mM Hepes, 0.01% ascorbic acid and 500 μM iso-butyl-methyl xanthine (IBMX; pH 7.2; media A). The final volume for each well was 500 μl. In addition to the dose response curves run for each drug, basal levels of cAMP and isoproterenol-stimulated (through endogenous β2 receptors, positive control) cAMP levels were evaluated for each plate. Each condition was run in duplicate wells. Following a 10 min incubation at 37° C., cells were rinsed briefly with media, and the reaction stopped with the addition of 500 μl 0.1 N HCl. Cells were then allowed to chill for 5-10 min at 4° C., the wells were scraped and the volume placed into 1.7 ml centrifuge tubes. An additional 1 ml of 0.1 N HCl was added to each tube, for a final volume of 1.5 ml/tube. Tubes were vortexed briefly, and then spun in a BHG Hermle Z 230 M microcentrifuge for five min at 15,000×g to eliminate large cellular particles. Cyclic AMP levels for each sample were determined as described above. Data were calculated for each sample, and expressed initially as pmol/mg/min cAMP. […] Normalized dose-response curves were analyzed by nonlinear regression using an algorithm for sigmoid curves in the curvefitting program InPlot (Graphpad, Inc.; San Francisco, Calif.). […]

D1 receptor = D1 receptor (Homo sapiens, UniProt P21728); settings: preparations with decreased receptor reserve; cited from earlier work
striatal D2 receptors = assay: Radioreceptor binding, striatal D2 receptors labeled with [3H]spiperone; parameters: species or system rat; settings: compared with dihydrexidine
Method: FIG. 3 is a graphic representation of the affinity of dinoxyline (circles), dinapsoline (diamonds), and chlorpromazine for striatal D2 receptors labeled with [^3H]spiperone. Unlabeled dinoxyline, dinapsoline, or chlorpromazine was added to determine the specific binding of each compound to the D2 receptor.
as §1, with “respectively.” for “respectively. Triplicate determinations were made for each drug concentration in each assay. Assay tubes were incubated at 37° C. for 15 minutes. Binding was terminated by filtering with ice cold buffer on a Skatron 12 well cell harvester (Skatron, Inc., Sterling, Va.) using glass fiber filter mats (Skatron no. 7034).”

[4] = tested on: rat unilateral 6-OHDA-lesion model; assay: Rat unilateral 6-OHDA-lesion model, contralateral rotation; assay type: in vivo
From the text: (§2) Accordingly dinoxyline and its derivatives have potential clinical utility in Parkinson's Disease and in other conditions where perturbation of dopamine receptors may be therapeutic.

[5] = target: T4, rat striatal D1 receptors (Rattus norvegicus, UniProt P18901); assay: Radioreceptor binding, rat striatal D1 receptors labeled with [3H]SCH23390
T4 construct: Frozen rat striata was homogenized by seven manual strokes; from tissue; host or cells: rat striatum
Method: FIG. 1 is a graphic representation of the affinity of dinoxyline (circles), dinapsoline (diamonds) and (+)-SCH23390 (solid circles) for striatal D1 receptors. Rat striatal D1 receptors were labeled with [^3H]SCH23390 (1), and unlabeled dinoxyline, dinapsoline, or (+)-SCH23390 was added to determine the specific binding of each compound to the D1 receptor.
Frozen rat striata was homogenized by seven manual strokes in a Wheaton Teflon-glass homogenizer in 8 ml ice cold 50 mM HEPES buffer with 4.0 mM MgCl2, (pH 7.4). The tissue was centrifuged at 27,000×g for 10 min, the supernatant was discarded, and the pellet was homogenized (5 strokes) and resuspended in ice cold buffer and centrifuged again. The final pellet was suspended at a concentration of approximately 2.0 mg wet weight/ml. The amount of tissue added to each assay tube was 1.0 mg, in a final assay volume of 1.0 ml. D1 receptors were labeled with [^3H] SCH23390 (0.30 nM). D2 receptors were labeled with [^3H] spiperone (0.07 nM); unlabeled ketanserin (50 nM) was added to mask binding to 5HT2 sites. Total binding was defined as radioligand bound in the absence of any competing drug. Nonspecific binding was estimated by adding unlabeled SCH23390 (1 μM) or unlabeled chlorpromazine ([…]) for D1 and D2 receptor binding assays, respectively. Triplicate determinations were made for each drug concentration in each assay. Assay tubes were incubated at 37° C. for 15 minutes. Binding was terminated by filtering with ice cold buffer on a Skatron 12 well cell harvester (Skatron, Inc., Sterling, Va.) using glass fiber filter mats (Skatron no. 7034). Filters were allowed to dry and 2.0 ml of Optiphase HI-SAF II scintillation fluid was added. After shaking for 30 minutes, radioactivity was determined on a LKB Wallac 1219 RackBeta liquid scintillation counter (Wallac, Gaithersburg, Md.). Tissue protein levels were estimated using the BCA protein assay reagent.

[6] = tested on: marmosets having moderately-severe MPTP-induced dopamine denervation; assay: Marmosets with moderately-severe MPTP-induced dopamine denervation; assay type: in vivo, marmoset; settings: preliminary studies
From the text: as §2

T3 sequence (O77680 whole entry): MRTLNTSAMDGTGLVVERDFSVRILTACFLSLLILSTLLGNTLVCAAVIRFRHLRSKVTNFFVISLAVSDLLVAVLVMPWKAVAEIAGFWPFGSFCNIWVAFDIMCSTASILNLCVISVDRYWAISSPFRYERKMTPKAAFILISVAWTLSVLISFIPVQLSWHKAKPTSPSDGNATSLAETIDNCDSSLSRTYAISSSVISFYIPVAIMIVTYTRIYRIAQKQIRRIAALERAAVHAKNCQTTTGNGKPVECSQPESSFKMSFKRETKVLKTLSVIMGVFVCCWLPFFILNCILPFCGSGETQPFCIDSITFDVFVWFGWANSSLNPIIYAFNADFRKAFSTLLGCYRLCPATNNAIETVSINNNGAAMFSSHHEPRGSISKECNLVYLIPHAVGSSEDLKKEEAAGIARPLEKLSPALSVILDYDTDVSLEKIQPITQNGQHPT
T4 sequence (P18901 whole entry): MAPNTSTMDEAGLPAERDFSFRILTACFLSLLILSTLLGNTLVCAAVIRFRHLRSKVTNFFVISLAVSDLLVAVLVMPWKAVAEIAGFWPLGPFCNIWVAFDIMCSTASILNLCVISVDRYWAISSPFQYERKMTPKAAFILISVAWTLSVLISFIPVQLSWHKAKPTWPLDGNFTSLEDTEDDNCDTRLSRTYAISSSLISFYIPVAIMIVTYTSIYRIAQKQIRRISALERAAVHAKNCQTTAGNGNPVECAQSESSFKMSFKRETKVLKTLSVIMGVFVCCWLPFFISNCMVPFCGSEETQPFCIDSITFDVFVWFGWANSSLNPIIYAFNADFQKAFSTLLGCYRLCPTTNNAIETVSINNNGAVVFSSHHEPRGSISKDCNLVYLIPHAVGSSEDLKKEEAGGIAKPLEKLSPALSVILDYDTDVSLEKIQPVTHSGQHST
T2 sequence (P18901 whole entry): as above
Chain of D1 receptor (P21728 whole entry): as the sequence (O77680 whole entry) above, with I311N counted along it

D1:D2 selectivity (D1 and D2 receptors): five-fold | pKi (cloned human D4 receptor): < 6.00
SMILES: Oc1ccc2c(c1O)Cc1cccc3c1C2CNC3 (racemic) [dinapsoline, (±)-8,9-dihydroxy-2,3,7,11b-tetrahydro-1H-naphtho[1,2,3-de]isoquinoline, reference compound]

agonist intrinsic activity at D1 receptors (D1 receptors [1]): full agonist | agonist intrinsic activity at D1 receptors (D1 receptors [3]): full agonist
SMILES: Oc1cc2c(cc1O)[C@H]1c3ccccc3CN[C@@H]1CC2 (racemic) [dihydrexidine, (±)-trans-10,11-dihydroxy-5,6,6a,7,8,12b-hexahydrobenzo[a]phenanthridine]
antiparkinsonian effects [2]: exceptional antiparkinsonian effects | activity at D2-like receptors located post-synaptically (D2-like receptors): agonist | activity at D2-like receptors located pre-synaptically (D2-like receptors): antagonist

SMILES: C=CCN1CCc2c(cc(O)c(O)c2Cl)C(c2ccccc2)C1 (stereo not shown) [SKF82958]
intrinsic efficacy at D1 receptor (D1 receptor): not to have full intrinsic efficacy

SMILES: NC[C@@H]1O[C@H](C23CC4CC(CC(C4)C2)C3)Cc2c1ccc(O)c2O [Example A-77636]
antiparkinsonian effects [2]: exceptional antiparkinsonian effects

agonist intrinsic activity at D1 receptors (D1 receptors [1]): partial agonist | agonist intrinsic activity at D1 receptors (D1 receptors [3]): partial agonist
SMILES: Oc1cc2c(cc1O)C(c1ccccc1)CNCC2 (single isomer, unassigned; (+)) [(+)-SKF 38393, reference compound]

affinity for D2-like receptors (in words) (striatal D2 receptors): greater affinity | agonist intrinsic activity at D1 receptors (D1 receptors [1]; hydrobromide): full agonist activity | pEC50 (D1 receptors [1]; rat striatum, read-out: EC50 in stimulating synthesis of cAMP via D1 receptors): > 7.52 | pKi ([5]; [3H]SCH23390 label, rat striatum, read-out: K0.5 for rat striatal D1 receptors): > 8.30 | affinity for dopamine D1 receptors labeled with [3H]SCH23390 (in words) ([5]; compared with dihydrexidine): high affinity | nH of competition curve ([5]; competition at D1 receptors labeled with [3H]SCH23390, shallow curve consistent with agonist properties): ca. 0.7 | agonist intrinsic activity at D1 receptors (D1 receptors [3]; hydrobromide): full agonist activity | pEC50 (D1 receptors [3]; C-6-mD1 cells, read-out: EC50 in stimulating synthesis of cAMP via D1 receptors): > 7.52 | D1:D2 selectivity (D1 and D2 receptors): equally high affinity for both receptors | pKi (cloned human D4 receptor): > 7.35 | melting point: 298 to 302 °C (dec.)
SMILES: Br.Oc1ccc2c(c1O)Oc1cccc3c1C2CNC3 (racemic) [dinoxyline, (±)-8,9-dihydroxy-1,2,3,11b-tetrahydrochromeno[4,3,2-de]isoquinoline hydrobromide]
duration of action relative to a similar dose of dihydrexidine ([4]; same route (subcutaneous)): more than twice | contralateral rotation ([4]; single subcutaneous dose): significant rotation | antiparkinson effects (locomotion, arousal, Parkinson signs) [6]: significant antiparkinson effects
